Among the data in ChEMBL document CHEMBL2057106, “Α-amino-β-fluorocyclopropanecarboxylic acids as a new tool for drug development: synthesis of glutamic acid analogs and agonist activity towards metabotropic glutamate receptor 4” (Bioorg Med Chem, 2012) are EC50, Ratio EC50 and Activity values, retold here.

A short description of assay [1]: Agonist activity at mGlu4a receptor assessed as inhibition of forskolin-stimulated cAMP production. It counts as functional, Homo sapiens.
In assay [2] the target is Metabotropic glutamate receptor 4 (Rattus norvegicus, UniProt P31423). The assay is described as follows: Agonist activity at rat mGlu4 receptor expressed in HEK293 cells coexpressing Gq/Gi and EAAC1 assessed as intracellular calcium production measured every 1.5 secs for 60 secs by Fluo-4-AM based fluorometry. It counts as functional, cell-based. Background: A change in cytosolic calcium serves as a functional read-out for many receptors and channels.
Sequence of Metabotropic glutamate receptor 4 (P31423 whole entry): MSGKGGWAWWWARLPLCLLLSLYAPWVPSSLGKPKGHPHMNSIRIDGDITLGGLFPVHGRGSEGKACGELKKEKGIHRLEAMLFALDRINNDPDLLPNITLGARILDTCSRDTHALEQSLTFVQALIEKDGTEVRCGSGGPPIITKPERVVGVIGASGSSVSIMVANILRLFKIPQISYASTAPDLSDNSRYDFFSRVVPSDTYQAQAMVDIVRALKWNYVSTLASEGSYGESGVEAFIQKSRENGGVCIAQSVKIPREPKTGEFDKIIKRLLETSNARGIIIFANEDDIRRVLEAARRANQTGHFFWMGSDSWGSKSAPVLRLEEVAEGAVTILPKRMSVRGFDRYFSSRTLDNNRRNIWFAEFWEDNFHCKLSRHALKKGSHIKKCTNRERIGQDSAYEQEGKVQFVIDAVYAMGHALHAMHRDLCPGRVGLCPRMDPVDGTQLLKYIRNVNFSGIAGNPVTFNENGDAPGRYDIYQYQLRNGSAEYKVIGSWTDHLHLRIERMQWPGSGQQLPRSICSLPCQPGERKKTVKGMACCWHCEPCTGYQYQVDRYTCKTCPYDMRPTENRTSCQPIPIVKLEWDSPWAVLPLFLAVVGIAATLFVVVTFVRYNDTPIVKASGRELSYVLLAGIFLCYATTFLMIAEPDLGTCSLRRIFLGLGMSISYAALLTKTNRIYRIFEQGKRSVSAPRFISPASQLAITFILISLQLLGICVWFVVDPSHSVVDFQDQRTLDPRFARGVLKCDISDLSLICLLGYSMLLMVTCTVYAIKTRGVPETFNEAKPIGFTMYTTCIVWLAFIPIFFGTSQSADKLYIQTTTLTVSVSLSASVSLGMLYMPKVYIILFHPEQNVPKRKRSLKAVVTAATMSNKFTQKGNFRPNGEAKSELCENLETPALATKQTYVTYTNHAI

For assay [3], the target named is Metabotropic glutamate receptor 4 (Rattus norvegicus) (UniProt P31423). Nature of the assay: Ratio of glutamate EC50 to compound EC50 for rat mGlu4 receptor expressed in HEK293 cells. It counts as cell-based.
Sequence of Metabotropic glutamate receptor 4 (Rattus norvegicus) (P31423 whole entry): as above
Assay [4] shares this target. The assay is described as follows: Agonist activity at rat mGlu4 receptor expressed in HEK293 cells coexpressing Gq/Gi and EAAC1 assessed as intracellular calcium production at 100 uM measured every 1.5 secs for 60 secs by Fluo-4-AM based fluorometry. It counts as functional, cell-based.
Assay [5] shares this target. The assay is described as follows: Ratio of (E)APCPr EC50 to compound EC50 for rat mGlu4 receptor expressed in HEK293 cells. It is filed as cell-based.

The source made the active and inactive calls. The rule behind the calls is not given here.

On to `N[C@@H](CCP(=O)(O)O)C(=O)O`, for which the EC50 (commonly the concentration at which the effect is half-maximal) in assay [1] was 0.43 µM. Take `N[C@@]1(C(=O)O)C[C@@]1(F)C(O)P(=O)(O)O` (mixture of isomers): in assay [2], the EC50 turned out to be 1400 µM.

Take `N[C@]1(C(=O)O)C[C@@]1(F)CP(=O)(O)O` (racemic): the Ratio EC50 is 10 in assay [3] and 7 in assay [5]. In addition, the result in assay [4] was Active. The EC50 in assay [2] was 0.34 µM. For the molecule `N[C@]1(C(=O)O)C[C@@]1(F)CCC(=O)O` (racemic), in assay [2], the EC50 is 609 µM.

Consider `N[C@]1(C(=O)O)C[C@@]1(F)CC(=O)O` (racemic), for which the EC50 in assay [2] was 465 µM. Same read-out and setting: with `N[C@]1(C(=O)O)C[C@@]1(F)CS(=O)(=O)O` (racemic) the figure was 85.6 µM. With `N[C@]1(C(=O)O)C[C@H]1CP(=O)(O)O` (racemic), the EC50 in assay [1] turned out to be 7.9 µM. In the case of `N[C@@H](CCC(=O)O)C(=O)O` [GLUTAMIC ACID], the EC50 in assay [2] was determined as 2.88 µM.
